PubChem BioAssay AID1918944 (Molecular Pharmacology Branch, DTP, NCI, 2023)

Test system: 786-0 complex spheroid viability
Experiment: Anticancer human tumor 786-0 cell line growth inhibition;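 note: spheroids exposed to agents for seven days before readout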
Settings: for IC50: curve of first compound; for viability, T/C: stronger effect = lower value
How it was run: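 Drug combinations with the LSD1 inhibitor iadademstat tested on tumor cells co-cultured as spheroids with endothelial cells and mesenchymal stem cells. Concentrations descended in half-log increments from clinical Cmax or 10 microM.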

[1] = second compound 0.1 µM, first compound 0.00316 µM
[2] = second compound 0.1 µM, first compound 0.01 µM
[3] = second compound 0.1 µM, first compound 0.0316 µM
[4] = second compound 0.1 µM, first compound 0.1 µM
[5] = second compound 0.1 µM, first compound 0.316 µM
[6] = second compound 0.1 µM, first compound 1 µM
[7] = second compound 0.316 µM, first compound 0.00316 µM
[8] = second compound 0.316 µM, first compound 0.01 µM
[9] = second compound 0.316 µM, first compound 0.0316 µM
[10] = second compound 0.316 µM, first compound 0.1 µM
[11] = second compound 0.316 µM, first compound 0.316 µM
[12] = second compound 0.316 µM, first compound 1 µM
[13] = second compound 1 µM, first compound 0.00316 µM
[14] = second compound 1 µM, first compound 0.01 µM
[15] = second compound 1 µM, first compound 0.0316 µM
[16] = second compound 1 µM, first compound 0.1 µM
[17] = second compound 1 µM, first compound 0.316 µM
[18] = second compound 1 µM, first compound 1 µM
[19] = second compound 3.16 µM, first compound 0.00316 µM
[20] = second compound 3.16 µM, first compound 0.01 µM
[21] = second compound 3.16 µM, first compound 0.0316 µM
[22] = second compound 3.16 µM, first compound 0.1 µM
[23] = second compound 3.16 µM, first compound 0.316 µM
[24] = second compound 3.16 µM, first compound 1 µM
[25] = second compound 10 µM, first compound 0.00316 µM
[26] = second compound 10 µM, first compound 0.01 µM
[27] = second compound 10 µM, first compound 0.0316 µM
[28] = second compound 10 µM, first compound 0.1 µM
[29] = second compound 10 µM, first compound 0.316 µM
[30] = second compound 10 µM, first compound 1 µM

Compound | IC50 (second compound 0.1 µM) [nM] | IC50 (second compound 0.316 µM) [nM] | IC50 (second compound 1 µM) [nM] | IC50 (second compound 3.16 µM) [nM] | IC50 (second compound 10 µM) [nM] | viability, T/C [3] [%] | viability, T/C [4] [%] | viability, T/C [5] [%] | viability, T/C [6] [%] | viability, T/C [9] [%] | viability, T/C [10] [%] | viability, T/C [11] [%] | viability, T/C [12] [%] | viability, T/C [15] [%] | viability, T/C [16] [%] | viability, T/C [17] [%] | viability, T/C [18] [%] | viability, T/C [21] [%] | viability, T/C [22] [%] | viability, T/C [23] [%] | further results
O=C(C=Cn1cnc(-c2cc(C(F)(F)F)cc(C(F)(F)F)c2)n1)NNc1cnccn1 + NC1CC1c1ccc(-c2cccc(O)c2)cc1 | 37.7 | 34.3 | 40 | 37.5 | 35.6 | 51.1 | 39.1 | 28.9 | 25.2 | 51.5 | 36.7 | 29.9 | 26.2 | 53.4 | 37.7 | 31.2 | 22.7 | 52.4 | 38.1 | 29.1 | viability, T/C [1]: 92.5%; viability, T/C [2]: 72.2%; viability, T/C [7]: 100%; viability, T/C [8]: 72.5%; viability, T/C [13]: 95.7%; viability, T/C [14]: 71.3%; viability, T/C [19]: 99.4%; viability, T/C [20]: 73.5%; viability, T/C [24]: 26.3%; viability, T/C [25]: 108%; viability, T/C [26]: 67.8%; viability, T/C [27]: 55%; viability, T/C [28]: 39.4%; viability, T/C [29]: 29.7%; viability, T/C [30]: 25.4%
O=C(c1cc(Cc2n[nH]c(=O)c3ccccc23)ccc1F)N1CCN(C(=O)C2CC2)CC1 + NC1CC1c1ccc(-c2cccc(O)c2)cc1 | > 10000 | > 10000 | > 10000 | > 10000 | > 10000 | 111 | 119 | 107 | 105 | 112 | 112 | 112 | 109 | 111 | 110 | 113 | 108 | 103 | 105 | 103 | viability, T/C (second compound 0.1 µM, first compound 3.16 µM): 97.6%; viability, T/C (second compound 0.1 µM, first compound 10 µM): 80.8%; viability, T/C (second compound 0.316 µM, first compound 3.16 µM): 98.8%; viability, T/C (second compound 0.316 µM, first compound 10 µM): 81.1%; viability, T/C (second compound 1 µM, first compound 3.16 µM): 93.3%; viability, T/C (second compound 1 µM, first compound 10 µM): 78.6%; viability, T/C [24]: 97.5%; viability, T/C (second compound 3.16 µM, first compound 3.16 µM): 85.9%; viability, T/C (second compound 3.16 µM, first compound 10 µM): 68.4%; viability, T/C [27]: 97.3%; viability, T/C [28]: 98.8%; viability, T/C [29]: 89.3%; viability, T/C [30]: 90.7%; viability, T/C (second compound 10 µM, first compound 3.16 µM): 72.8%; viability, T/C (second compound 10 µM, first compound 10 µM): 52.9%
COc1cc(Nc2ncc3c(n2)-c2ccc(Cl)cc2C(c2c(F)cccc2OC)=NC3)ccc1C(=O)O + NC1CCC(NC2CC2c2ccccc2)CC1 | 609 | 480 | 451 | 233 | 117 | 80.7 | 68.8 | 57.1 | 44.5 | 73.2 | 65.9 | 54.1 | 43.7 | 71.8 | 66.9 | 53.9 | 42.5 | 60.3 | 59.1 | 51 | viability, T/C [1]: 114%; viability, T/C [2]: 97.2%; viability, T/C [7]: 116%; viability, T/C [8]: 93.2%; viability, T/C [13]: 108%; viability, T/C [14]: 91%; viability, T/C [19]: 102%; viability, T/C [20]: 82%; viability, T/C [24]: 40.6%; viability, T/C [25]: 80.2%; viability, T/C [26]: 64.9%; viability, T/C [27]: 53.2%; viability, T/C [28]: 56.4%; viability, T/C [29]: 46.4%; viability, T/C [30]: 39.7%
